Assay results from patent publication US20260015357A1, “MODULATORS OF NLRP3 INFLAMMASOME AND RELATED PRODUCTS AND METHODS” (Neumora Therapeutics, Inc., priority 2022, published 2026).

Assays:
[1] = molecular target: T1, NLRP3 inflammasome (Homo sapiens, UniProt Q96P20); assay: NLRP3 inflammasome activation in LPS-primed, nigericin-activated THP1 macrophages, IL-1β AlphaLISA; assay type: cell-based; conditions: PMA-differentiated, 1 hr compound, Nigericin 6.7 uM 3 hrs, IL-1β in supernatant
T1 construct: host or cells: THP1 human acute monocytic leukemia cells, PMA-differentiated, LPS-primed
T1 sequence (Q96P20 whole entry): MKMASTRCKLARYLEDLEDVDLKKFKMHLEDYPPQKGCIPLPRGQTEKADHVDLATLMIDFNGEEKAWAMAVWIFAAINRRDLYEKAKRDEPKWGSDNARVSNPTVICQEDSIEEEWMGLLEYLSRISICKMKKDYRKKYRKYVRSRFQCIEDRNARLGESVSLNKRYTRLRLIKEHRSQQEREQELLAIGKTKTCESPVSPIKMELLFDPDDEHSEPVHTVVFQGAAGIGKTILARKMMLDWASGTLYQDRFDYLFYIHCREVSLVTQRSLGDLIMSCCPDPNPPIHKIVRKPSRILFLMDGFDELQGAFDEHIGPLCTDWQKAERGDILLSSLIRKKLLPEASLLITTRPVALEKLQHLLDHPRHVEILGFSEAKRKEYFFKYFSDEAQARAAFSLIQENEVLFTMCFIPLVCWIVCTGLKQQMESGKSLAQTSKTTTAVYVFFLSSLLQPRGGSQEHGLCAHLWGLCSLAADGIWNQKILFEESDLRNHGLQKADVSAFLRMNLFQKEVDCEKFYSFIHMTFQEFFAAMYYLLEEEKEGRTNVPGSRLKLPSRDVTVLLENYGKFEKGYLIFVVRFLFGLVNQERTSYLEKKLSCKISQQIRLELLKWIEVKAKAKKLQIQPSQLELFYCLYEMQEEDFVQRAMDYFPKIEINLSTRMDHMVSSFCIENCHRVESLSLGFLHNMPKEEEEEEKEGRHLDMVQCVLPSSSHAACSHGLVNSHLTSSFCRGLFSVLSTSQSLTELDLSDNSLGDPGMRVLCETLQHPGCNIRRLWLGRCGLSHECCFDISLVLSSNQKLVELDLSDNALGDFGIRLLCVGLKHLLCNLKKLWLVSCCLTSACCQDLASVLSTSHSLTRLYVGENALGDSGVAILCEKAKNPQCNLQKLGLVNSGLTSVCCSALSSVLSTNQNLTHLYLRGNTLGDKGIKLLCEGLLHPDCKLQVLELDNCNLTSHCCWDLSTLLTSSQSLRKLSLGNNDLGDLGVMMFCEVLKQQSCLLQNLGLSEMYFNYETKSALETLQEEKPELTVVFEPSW
Procedure: (§1) NLRP3 Inflammasome Activation and Cell Viability Assessment in THP1 Macrophages
(§2) THP1—Human acute monocytic leukemia cells were cultured (ATCC, cat #TIB-202) in Gibco RPMI-1640 medium (ThermoFisher cat #72400054) supplemented with 10% Heat Inactivated FBS at density between 3-8×10^5 viable cells/mi. The cells were then subcultured when the cell concentration reached 8×10^5 cells/mL (every 2-3 days).
(§3) The parameter wells were filled with 50 ul PBS and incubated at 37° C., 5% CO2 for 48 hrs.
(§4) After 48 hrs incubation, the PMA containing media was removed, and changed for 40 ul/well of fresh DMEM, 10% FBS, 1× GlutaMax and incubated at 37° C., 5% CO2 for 24 hrs.
(§5) The following day the cells were primed with LPS (E. coli) (Sigma, cat #L3129) […] in DMEM, 10% FBS, 1× GlutaMax for 3 hrs at 37° C., 5% CO2.
(§6) Following the LPS priming step, the cells were treated with compounds at 10 uM top final concentration, 1:4 dilution, 8 times: (10 uM, 2.5 uM, 0.625 uM, 0.156 uM, 0.039 uM, 0.0097 uM, 0.0024 uM, 0.0006 uM). DMSO was used as a vehicle control, and MCC950 (InvivoGen, cat #inh-mcc) was used at 1 uM as a positive control, and incubated for 1 hrs at 37° C., 5% CO2.
(§7) Following the 1 hr compound incubation, the NLRP3 inflammasome activation step was conducted by treating cells with Nigericin (InvivoGen, cat #tlrl-nig) at 6.7 uM final concentration for 3 hrs at 37° C., 5% CO2.
(§8) Thereafter, 30 ul samples of cells' supernatants were collected for cytokine analysis which was conducted on Hu IL-1β AlphaLISA (Perkin Elmer, cat #AL220C) and Hu IL-6 AlphaLISA (Perkin Elmer, cat #AL220C). The cells' viability was assessed by performing CellTiter-Glo Luminescent Assay (Promega, cat #G7572) according to the manufacturer's protocol.

[2] = system: IL-6; assay: IL-6 in supernatants of LPS-primed, nigericin-treated THP1 macrophages, Hu IL-6 AlphaLISA; assay type: cell-based; conditions: Homo sapiens, THP-1, PMA-differentiated, 1 hr compound, Nigericin 6.7 uM 3 hrs, IL-6 in supernatant
Procedure: as §1, §2, §3, §4, §5, §6, §7, §8

Row | IC50 [1] | IC50 [2] | SMILES
1 | < 0.01 µM | ≤ 1 µM | CCN1CCC[C@@H](Nc2nnc(-c3ccc(C(F)(F)F)cc3)c3ccn(C)c23)C1 [Compound 76]
2 | 0.5 to 1 µM | ≤ 1 µM | CC(C)N1CCC[C@@H](Nc2nnc(-c3ccc(C(F)(F)F)cc3)c3ccn(C)c23)C1 [Compound 77]
3 | 0.1 to 0.5 µM | ≥ 10 µM | CN1CCC[C@@H](Nc2nnc(-c3ccc(C#N)cc3)c3ccn(C)c23)C1 [Compound 79]
4 | 0.1 to 0.5 µM | 1 to 5 µM | CN1CCC[C@@H](N(C)c2nnc(-c3ccc(F)cc3O)c3ccn(C)c23)C1 [Compound 81]
5 | 1 to 10 µM | 1 to 5 µM | CN1CCC[C@@H](N(C)c2nnc(-c3ccc(Cl)cc3)c3ccn(C)c23)C1 [Compound 82]
6 | 0.1 to 0.5 µM | 5 to 10 µM | CN1CCC[C@@H](Oc2nnc(-c3ccc(C(F)(F)F)cc3)c3ccn(C)c23)C1 [Compound 85]
7 | 0.1 to 0.5 µM | ≥ 10 µM | CN1CCC[C@@H](Oc2nnc(-c3ccc(F)cc3O)c3ccn(C)c23)C1 [Compound 89]
8 | 0.1 to 0.5 µM | ≥ 10 µM | CN1CCC[C@@H](Oc2nnc(-c3ccc(F)cc3O)c3cc[nH]c23)C1 [Compound 90]
9 | 0.1 to 0.5 µM | ≥ 10 µM | CN1CCC[C@@H](N(C)c2nnc(-c3ccc(F)cc3O)c3ccsc23)C1 [Compound 98]
10 | 0.5 to 1 µM | ≥ 10 µM | CN1CCC[C@@H](N(C)c2nnc(-c3ccc(C#N)cc3O)c3ccn(C)c23)C1 [Compound 102]
11 | < 0.01 µM | 5 to 10 µM | CCN1CCC[C@@H](Nc2nnc(-c3ccc(C#N)cc3O)c3ccn(C)c23)C1 [Compound 103]
12 | 0.1 to 0.5 µM | ≥ 10 µM | CN1CCC[C@@H](N(C)c2nnc(-c3ccc(F)cc3O)c3ccoc23)C1 [Compound 107]
13 | 0.01 to 0.1 µM | ≥ 10 µM | Cc1cc(C(F)(F)F)ccc1-c1nnc(N[C@@H]2CCCN(C)C2)c2c1cnn2C [Compound 110]
14 | 0.1 to 0.5 µM | ≥ 10 µM | CN1CCC[C@@H](Nc2nnc(-c3ncc(C#N)cc3O)c3cnn(C)c23)C1 [Compound 111]
15 | < 0.01 µM | ≥ 10 µM | Cc1cc(C#N)cc(O)c1-c1nnc(N[C@@H]2CCCN(C)C2)c2c1cnn2C [Compound 115]
16 | 0.1 to 0.5 µM | ≥ 10 µM | CN1CCC[C@@H](Nc2nnc(-c3ccc(C#N)cc3C(F)F)c3cnn(C)c23)C1 [Compound 117]
17 | 0.01 to 0.1 µM | ≥ 10 µM | CN1CCC[C@@H](Nc2nnc(-c3ccc(Cl)cc3C(F)F)c3cnn(C)c23)C1 [Compound 118]
18 | 0.01 to 0.1 µM | ≥ 10 µM | CN1CCC[C@@H](Nc2nnc(-c3ccc(C(F)(F)F)cc3C(F)F)c3cnn(C)c23)C1 [Compound 119]
19 | 0.01 to 0.1 µM | ≥ 10 µM | CN1CCC[C@@H](Nc2nnc(-c3ncc(C(F)(F)F)cc3Cl)c3ccn(C)c23)C1 [Compound 131]
20 | ≥ 10 µM | ≥ 10 µM | Cc1cc(C#N)cnc1-c1nnc(N[C@@H]2CCCN(C)C2)c2c1cnn2C [Compound 139]
21 | < 0.01 µM | ≤ 1 µM | Cc1cc(C(F)(F)F)cc(O)c1-c1nnc(N[C@@H]2CCCN(C)C2)c2c1ccn2C [Compound 143]
22 | < 0.01 µM | ≥ 10 µM | CN1CCC[C@@H](Nc2nnc(-c3ccc(C#N)cc3O)c3cnsc23)C1 [Compound 144]
23 | ≥ 10 µM | ≥ 10 µM | CN1C[C@H](Nc2nnc(-c3ccc(C#N)cc3O)c3ccn(C)c23)CC(F)(F)C1 [Compound 145]
24 | 0.01 to 0.1 µM | ≥ 10 µM | Cn1ccc2c(-c3ccc(C#N)cc3O)nnc(N[C@@H]3CCCN(C4CC4)C3)c21 [Compound 146]
25 | < 0.01 µM | ≥ 10 µM | Cn1ccc2c(-c3ccc(C#N)cc3O)nnc(N[C@@H]3CCCN(CCO)C3)c21 [Compound 147]
26 | 0.01 to 0.1 µM | ≥ 10 µM | Cn1ccc2c(-c3ccc(C#N)cc3O)nnc(N[C@@H]3CCCN(CCF)C3)c21 [Compound 148]

The next lines start with the compound.

Row | SMILES | IC50 [1] | IC50 [2]
27 | CN1CCC[C@@H](Nc2nnc(-c3ccc(F)cc3O)c3ccn(C)c23)C1 [Compound 78] | < 0.01 µM | 1 to 5 µM
28 | CN1CCC[C@@H](Nc2nnc(-c3ccc(Cl)cc3)c3ccn(C)c23)C1 [Compound 80] | < 0.01 µM | ≥ 10 µM
29 | CN1CCCC(Cc2nnc(-c3ccc(C(F)(F)F)cc3)c3cc[nH]c23)C1 (stereo not drawn) [Compound 83] | 0.01 to 0.1 µM | 1 to 5 µM
30 | CN1CCC[C@@H](N(C)c2nnc(-c3ccc(C#N)cc3)c3ccn(C)c23)C1 [Compound 84] | ≥ 10 µM | ≥ 10 µM
31 | CN1CCC[C@@H](Oc2nnc(-c3ccc(F)cc3O)c3ccsc23)C1 [Compound 86] | 0.1 to 0.5 µM | ≥ 10 µM
32 | CN1CCC[C@@H](Oc2nnc(-c3ccc(C(F)(F)F)cc3)c3ccsc23)C1 [Compound 87] | 0.1 to 0.5 µM | ≥ 10 µM
33 | CN1CCC[C@@H](Oc2nnc(-c3ccc(C(F)(F)F)cc3)c3ccoc23)C1 [Compound 88] | 1 to 10 µM | ≥ 10 µM
34 | CN1CCC[C@@H](Oc2nnc(-c3ccc(F)cc3O)c3ccoc23)C1 [Compound 91] | 0.1 to 0.5 µM | ≥ 10 µM
35 | C[N+]1(C)CCC[C@@H](Nc2nnc(-c3ccc(C(F)(F)F)cc3)c3nc[nH]c23)C1 [Compound 92] | ≥ 10 µM | ≥ 10 µM
36 | CN1CCC[C@@H](N(C)c2nnc(-c3ccc(C(F)(F)F)cc3)c3ccoc23)C1 [Compound 93] | 1 to 10 µM | ≥ 10 µM
37 | CN1CCC[C@@H](N(C)c2nnc(-c3ccc(C(F)(F)F)cc3)c3ccsc23)C1 [Compound 95] | 0.5 to 1 µM | ≥ 10 µM
38 | CN1CCC[C@@H](N(C)c2nnc(-c3ccc(F)cc3O)c3cc[nH]c23)C1 [Compound 96] | 0.01 to 0.1 µM | ≥ 10 µM
39 | Cc1cn(C)c2c(N[C@@H]3CCCN(C)C3)nnc(-c3ccc(C(F)(F)F)cc3)c12 [Compound 97] | 0.1 to 0.5 µM | ≥ 10 µM
40 | CC(C)N1CCC[C@@H](Nc2nnc(-c3ncc(C#N)cc3O)c3ccn(C)c23)C1 [Compound 99] | < 0.01 µM | 5 to 10 µM
41 | CN1CCC[C@@H](Nc2nnc(-c3ccc(C#N)cc3O)c3ccn(C)c23)C1 [Compound 100] | 0.01 to 0.1 µM | 5 to 10 µM
42 | Cc1cc2c(-c3ccc(C(F)(F)F)cc3)nnc(N[C@@H]3CCCN(C)C3)c2n1C [Compound 101] | 0.01 to 0.1 µM | 5 to 10 µM

Row | SMILES | IC50 [1] | IC50 [2]
43 | CN1CCC[C@@H](Nc2nnc(-c3ccc(C#N)cc3O)c3c2cnn3C)C1 [Compound 104] | 0.01 to 0.1 µM | ≥ 10 µM
44 | CN1CCC[C@@H](N(C)c2nnc(-c3ccc(C(F)(F)F)cc3)c3ncn(C)c23)C1 [Compound 105] | ≥ 10 µM | ≥ 10 µM
45 | CN1CCC[C@@H](N(C)c2nnc(-c3ccc(C(F)(F)F)cc3)c3c2cnn3C)C1 [Compound 106] | ≥ 10 µM | ≥ 10 µM
46 | Cn1ncc2c(-c3ccc(C(F)(F)F)cc3)nnc(N[C@@H]3CCCN(CC4CC4)C3)c21 [Compound 108] | 0.01 to 0.1 µM | ≥ 10 µM
47 | Cn1ncc2c(-c3ccc(C(F)(F)F)cc3)nnc(N[C@@H]3CCCN(C4CC4)C3)c21 [Compound 109] | 0.01 to 0.1 µM | ≥ 10 µM
48 | Cc1cc(C#N)ccc1-c1nnc(N[C@@H]2CCCN(C)C2)c2c1cnn2C [Compound 112] | 0.01 to 0.1 µM | ≥ 10 µM
49 | CN1CCC[C@@H](Nc2nnc(-c3ccc(Cl)cc3C(F)F)c3ccn(C)c23)C1 [Compound 121] | 0.01 to 0.1 µM | ≥ 10 µM
50 | Cc1cc(C(F)(F)F)ccc1-c1nnc(N[C@@H]2CCCN(C)C2)c2c1ccn2C [Compound 123] | < 0.01 µM | 1 to 5 µM
51 | CN1CCC[C@@H](Nc2nnc(-c3ccc(C#N)cc3Cl)c3ccn(C)c23)C1 [Compound 124] | 0.1 to 0.5 µM | ≥ 10 µM
52 | Cc1cc(C#N)cc(C)c1-c1nnc(N[C@@H]2CCCN(C)C2)c2c1ccn2C [Compound 126] | ≥ 10 µM | ≥ 10 µM
53 | Cc1cc(C#N)cc(O)c1-c1nnc(N[C@@H]2CCCN(C)C2)c2c1ccn2C [Compound 127] | < 0.01 µM | 5 to 10 µM
54 | CN1CCC[C@@H](Nc2nnc(-c3ccc(C(F)(F)F)cn3)c3ccn(C)c23)C1 [Compound 129] | 0.1 to 0.5 µM | ≥ 10 µM
55 | Cc1cc(C#N)cnc1-c1nnc(N[C@@H]2CCCN(C)C2)c2c1ccn2C [Compound 132] | 1 to 10 µM | ≥ 10 µM
56 | CN1CCC[C@@H](Nc2nnc(-c3ccc(C(F)(F)F)cn3)c3cnn(C)c23)C1 [Compound 136] | 0.1 to 0.5 µM | 1 to 5 µM
57 | Cc1cc(C(F)(F)F)cnc1-c1nnc(N[C@@H]2CCCN(C)C2)c2c1cnn2C [Compound 137] | 0.01 to 0.1 µM | ≥ 10 µM
